Several values for one entry are separate records, joined by “and”; a condition that tells them apart may be missing. Identical values can stand only once. Inconclusive results and toxic doses are left out. No stated cut-off is given here; in the data, active means T/C of 150% or more; inactive means T/C below 125%.
Test system: L1210 leukemia ip in BDF1 mice, survival T/C
Experiment: NCI In Vivo Anticancer Drug Screen. Data for tumor model L1210 Leukemia (intraperitoneal) in B6D2F1 (BDF1) mice
Conditions: endpoint: mean survival time, higher = longer survival
Procedure, shortened: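 Each compound was tested against a transplantable tumor grown in mice. The endpoint was survival, with treated animals benchmarked against vehicle controls as a simple ratio.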

[1] = dose: 12.0 mg/kg/injection, schedule: Q01DX001 (ip), vehicle: other
[2] = dose: 12.5 mg/kg/injection, schedule: Q01DX009 (ip), vehicle: Klucel (hydroxypropylcellulose) (HPC)
[3] = dose: 100.0 mg/kg/injection, schedule: Q01DX009 (ip), vehicle: saline
[4] = dose: 100.0 mg/kg/injection, schedule: Q04DX003 (ip), vehicle: saline
[5] = dose: 200.0 mg/kg/injection, schedule: Q04DX003 (ip), vehicle: saline
[6] = dose: 400.0 mg/kg/injection, schedule: Q04DX003 (ip), vehicle: saline
[7] = dose: 50.0 mg/kg/injection, schedule: Q01DX001 (ip), vehicle: saline
[8] = dose: 100.0 mg/kg/injection, schedule: Q01DX001 (ip), vehicle: saline
[9] = dose: 200.0 mg/kg/injection, schedule: Q01DX001 (ip), vehicle: saline
[10] = dose: 400.0 mg/kg/injection, schedule: Q01DX001 (ip), vehicle: saline
[11] = dose: 100.0 mg/kg/injection, schedule: Q01DX009 (ip), vehicle: saline with Tween-80
[12] = dose: 200.0 mg/kg/injection, schedule: Q01DX009 (ip), vehicle: saline with Tween-80
[13] = dose: 400.0 mg/kg/injection, schedule: Q01DX009 (ip), vehicle: saline with Tween-80
[14] = dose: 100.0 mg/kg/injection, schedule: Q04DX003 (ip), vehicle: saline with Tween-80

Measured: T/C

CC[NH-].CC[NH-].[Cl][Pt+2][Cl]
inactive: dose: 0.75 mg/kg/injection, schedule: Q01DX009 (ip), vehicle: other 106 % of control | dose: 1.5 mg/kg/injection, schedule: Q01DX001 (ip), vehicle: other 101 % of control | dose: 1.5 mg/kg/injection, schedule: Q01DX009 (ip), vehicle: other 118 % of control | dose: 2.6 mg/kg/injection, schedule: Q01DX009 (ip), vehicle: Klucel (hydroxypropylcellulose) (HPC) 108 % of control and 114 % of control | dose: 3.0 mg/kg/injection, schedule: Q01DX001 (ip), vehicle: other 106 % of control | dose: 3.0 mg/kg/injection, schedule: Q01DX009 (ip), vehicle: other 124 % of control | dose: 4.0 mg/kg/injection, schedule: Q01DX009 (ip), vehicle: Klucel (hydroxypropylcellulose) (HPC) 108 % of control and 119 % of control | dose: 5.0 mg/kg/injection, schedule: Q04DX003 (ip), vehicle: Klucel (hydroxypropylcellulose) (HPC) 107 % of control | dose: 6.0 mg/kg/injection, schedule: Q01DX009 (ip), vehicle: Klucel (hydroxypropylcellulose) (HPC) 115 % of control and 119 % of control | dose: 8.0 mg/kg/injection, schedule: Q04DX003 (ip), vehicle: Klucel (hydroxypropylcellulose) (HPC) 110 % of control | dose: 9.0 mg/kg/injection, schedule: Q01DX009 (ip), vehicle: Klucel (hydroxypropylcellulose) (HPC) 107 % of control | [1] 121 % of control | [2] 119 % of control | dose: 18.0 mg/kg/injection, schedule: Q04DX003 (ip), vehicle: Klucel (hydroxypropylcellulose) (HPC) 117 % of control | dose: 25.0 mg/kg/injection, schedule: Q04DX003 (ip), vehicle: Klucel (hydroxypropylcellulose) (HPC) 90 % of control

CCCCCCCCCCCCCCCC(=O)N(CCC#N)CCCCCCCCCN(CCC#N)C(=O)CCCCCCCCCCCCCCC
inactive: [3] 86 % of control | [4] 94 % of control | [5] 87 % of control | dose: 400.0 mg/kg/injection, schedule: Q01DX009 (ip), vehicle: saline 91 % of control | [6] 92 % of control

OCC(F)(F)C(F)F
inactive: [7] 91 % of control | [8] 94 % of control | [9] 91 % of control | [10] 100 % of control

Cn1cc[n+](C)c1
inactive: [8] 102 % of control | [9] 97 % of control | [10] 100 % of control

O=c1c2ccccc2sc2cccc(Sc3ccccc3)c12
inactive: [11] 101 % of control | [12] 98 % of control | [13] 98 % of control

NC(=O)NC1CON(C(N)=O)C1=O (stereo not drawn)
inactive: dose: 100.0 mg/kg/injection, schedule: Q04DX002 (ip), vehicle: saline 94 % of control | dose: 200.0 mg/kg/injection, schedule: Q04DX002 (ip), vehicle: saline 112 % of control | dose: 400.0 mg/kg/injection, schedule: Q04DX002 (ip), vehicle: saline 94 % of control

Cc1ccc(S(=O)(=O)NC(CSSCC(NS(=O)(=O)c2ccc(C)cc2)C(=O)OC(C)(C)C)C(=O)OC(C)(C)C)cc1 (stereo not drawn)
inactive: dose: 100.0 mg/kg/injection, schedule: Q01DX009 (ip), vehicle: Klucel (hydroxypropylcellulose) (HPC) 101 % of control | dose: 100.0 mg/kg/injection, schedule: Q04DX003 (ip), vehicle: Klucel (hydroxypropylcellulose) (HPC) 98 % of control | dose: 200.0 mg/kg/injection, schedule: Q01DX009 (ip), vehicle: Klucel (hydroxypropylcellulose) (HPC) 106 % of control | dose: 200.0 mg/kg/injection, schedule: Q04DX003 (ip), vehicle: Klucel (hydroxypropylcellulose) (HPC) 101 % of control | dose: 400.0 mg/kg/injection, schedule: Q01DX009 (ip), vehicle: Klucel (hydroxypropylcellulose) (HPC) 95 % of control | dose: 400.0 mg/kg/injection, schedule: Q04DX003 (ip), vehicle: Klucel (hydroxypropylcellulose) (HPC) 98 % of control

Cn1c(=O)c2[nH]c(CCC3CCCC3)nc2n(C)c1=O
inactive: [7] 98 % of control | [8] 96 % of control | [9] 96 % of control | [10] 101 % of control

COC(=O)C(Br)C(C)OC (stereo not drawn)
inactive: [3] 96 % of control | dose: 200.0 mg/kg/injection, schedule: Q01DX009 (ip), vehicle: saline 101 % of control

CC(C)C(=O)[O][Sn]([CH2]c1ccccc1)([CH2]c1ccccc1)[CH2]c1ccccc1
inactive: [14] 88 % of control

Cn1c(Cl)nc2c(Cl)nc(Cl)nc21
inactive: dose: 6.25 mg/kg/injection, schedule: Q01DX009 (ip), vehicle: Klucel (hydroxypropylcellulose) (HPC) 102 % of control | [2] 102 % of control | [8] 92 % of control | [9] 94 % of control | [10] 94 % of control

CCC1CN1C(=O)c1ccc(OP(=O)(N2CC2CC)N2CC2CC)cc1 (stereo not drawn)
inactive: [7] 102 % of control | [8] 102 % of control | [9] 105 % of control | [10] 102 % of control

C1OC2CC3CC1C2C3 (stereo not drawn)
inactive: dose: 10.0 mg/kg/injection, schedule: Q01DX001 (ip), vehicle: acetone 107 % of control | dose: 20.0 mg/kg/injection, schedule: Q01DX001 (ip), vehicle: acetone 104 % of control | dose: 40.0 mg/kg/injection, schedule: Q01DX001 (ip), vehicle: acetone 98 % of control

O=S1(=O)C=CC(Br)C1 (stereo not drawn)
inactive: dose: 100.0 mg/kg/injection, schedule: Q01DX001 (ip), vehicle: saline with Tween-80 100 % of control | dose: 200.0 mg/kg/injection, schedule: Q01DX001 (ip), vehicle: saline with Tween-80 101 % of control

COC(=O)CCC(=O)c1cccc(C)c1
inactive: [14] 88 % of control | dose: 200.0 mg/kg/injection, schedule: Q04DX003 (ip), vehicle: saline with Tween-80 99 % of control | dose: 400.0 mg/kg/injection, schedule: Q04DX003 (ip), vehicle: saline with Tween-80 94 % of control

COc1cccc(C2CCCCC2OS(C)(=O)=O)c1 (stereo not drawn)
inactive: dose: 100.0 mg/kg/injection, schedule: Q01DX001 (ip), vehicle: carboxymethylcellulose (CMC) 97 % of control | dose: 200.0 mg/kg/injection, schedule: Q01DX001 (ip), vehicle: carboxymethylcellulose (CMC) 92 % of control | dose: 400.0 mg/kg/injection, schedule: Q01DX001 (ip), vehicle: carboxymethylcellulose (CMC) 95 % of control

CC(=O)/C(C1=NCCC1)=C(/C)O
inactive: [4] 92 % of control | [5] 98 % of control | [6] 98 % of control

O=[N+]([O-])CC(Nc1ccc(Br)cc1)c1ccccc1 (stereo not drawn)
inactive: dose: 67.0 mg/kg/injection, schedule: Q01DX009 (ip), vehicle: saline with Tween-80 95 % of control | [11] 97 % of control | dose: 150.0 mg/kg/injection, schedule: Q01DX009 (ip), vehicle: saline with Tween-80 100 % of control | [12] 91 % of control | [13] 86 % of control

CCN(CC)CCOc1cc(C)c2cc(Cc3ccccc3)ccc2n1
inactive: dose: 100.0 mg/kg/injection, schedule: Q01DX001 (ip), vehicle: other 104 % of control | dose: 200.0 mg/kg/injection, schedule: Q01DX001 (ip), vehicle: other 96 % of control

CN(C)S(=O)(=O)c1ccc(NC(=O)CI)cc1
inactive: [1] 95 % of control | dose: 12.5 mg/kg/injection, schedule: Q01DX009 (ip), vehicle: saline with Tween-80 95 % of control | dose: 12.5 mg/kg/injection, schedule: Q04DX003 (ip), vehicle: other 95 % of control | dose: 25.0 mg/kg/injection, schedule: Q01DX001 (ip), vehicle: other 105 % of control | dose: 25.0 mg/kg/injection, schedule: Q01DX009 (ip), vehicle: saline with Tween-80 106 % of control | dose: 25.0 mg/kg/injection, schedule: Q04DX003 (ip), vehicle: other 101 % of control | dose: 50.0 mg/kg/injection, schedule: Q01DX001 (ip), vehicle: other 100 % of control | dose: 50.0 mg/kg/injection, schedule: Q04DX003 (ip), vehicle: other 96 % of control

O=C1C(=O)c2cccc([N+](=O)[O-])c2-c2c1cccc2[N+](=O)[O-]
inactive: [8] 102 % of control | [9] 106 % of control | [10] 102 % of control

N#C/C(=C\C1CCC(Cl)C(Cl)C1)C1CCC([N+](=O)[O-])CC1 (stereo not drawn)
inactive: dose: 100.0 mg/kg/injection, schedule: Q04DX002 (ip), vehicle: saline with Tween-80 91 % of control | dose: 400.0 mg/kg/injection, schedule: Q04DX002 (ip), vehicle: saline with Tween-80 91 % of control

CCC(=O)O[C@H]1CC[C@H]2[C@@H]3C[C@H](F)C4=CC(=O)CC[C@]4(C)[C@H]3CC[C@]12C
inactive: [11] 102 % of control | [12] 93 % of control | [13] 91 % of control

CC(C)C(C)(C)NC(N)=O
inactive: [8] 102 % of control | [9] 104 % of control | [10] 104 % of control

COc1ccc(N=Cc2cc(Br)cc(Br)c2O)cc1.COc1ccc(N=Cc2cc(Br)cc(Br)c2O)cc1.[Co]
inactive: dose: 50.0 mg/kg/injection, schedule: Q04DX003 (ip), vehicle: saline 92 % of control | [4] 92 % of control | [5] 95 % of control
